We go through 9 molecules from patent US20070117743A1, “New antitumoral compounds” (priority 2003, published 2007).

Where a SMILES comes first, the peptide text is derived from it. Bridges are numbered along the chain shown (N, C = ends). [ ]: non-standard residue; d: D form. The star is where a group is joined. d(aIle) = CC[C@H](C)[C@@H](N)C(=O)O; d(aThr) = C[C@@H](O)[C@@H](N)C(=O)O; Hexanoyl(5-Me) = CC(C)CCCC(=O)*; d(hCys) = N[C@H](CCS)C(=O)O; Orn = NCCC[C@H](N)C(=O)O; Dhb = C/C=C(\N)C(=O)O Bounds are passed on as bounds.

What all share (format): cell-based, human
For data set [1], the system named is A-549. The data set can be described thus: SRB colorimetric assay of cell growth and viability, A-549. The conditions noted are these: A-549 cells, 48 hours exposure, SRB; for GI50: read-out: GI50 (growth inhibition at 50%); for CC50: read-out: LC50 (lethal concentration at 50%). (In general: Sulforhodamine B stains cellular protein and so reports cell mass.)
For data set [2], the system named is HT-29. The data set can be described thus: SRB colorimetric assay of cell growth and viability, HT-29. The settings on record: HT-29 cells, 48 hours exposure, SRB; for GI50: read-out: GI50 (growth inhibition at 50%); for CC50: read-out: LC50 (lethal concentration at 50%).
The test system of data set [3] is MB-231. The data set can be described thus: SRB colorimetric assay of cell growth and viability, MB-231. The settings on record: for TGI (total growth inhibition): MB-231 cells, 48 hours exposure; for GI50: read-out: GI50 (growth inhibition at 50%), MB-231 cells, 48 hours exposure; for CC50: read-out: LC50 (lethal concentration at 50%), MB-231 cells, 48 hours exposure. The text has this: The finality of this assay is to interrupt the growth of a “in vitro” tumor cell culture by means a continued exhibition of the cells to the sample to be testing.
A colorimetric type of assay, using sulforhodamine B (SRB) reaction has been adapted for a quantitative measurement of cell growth and viability [following the technique described by Philip Skehan, et al. (1990), New colorimetric cytotoxicity assay for anticancer drug screening, J. Natl. Cancer Inst., 82:1107-1112].
This form of the assay employs 96 well cell culture microplates of 9 mm diameter (Faircloth, 1988; Mosmann, 1983). Most of the cell lines are obtained from American Type Culture Collection (ATCC) derived from different human cancer types.
Cells are maintained in RPMI 1640 10% FBS, supplemented with 0.1 g/l penicillin and 0.1 g/l streptomycin sulfate and then incubated at 37° C., 5% CO2 and 98% humidity. For the experiments, cells were harvested from subconfluent cultures using trypsin and resuspended in fresh medium before plating.
Cells are seeded in 96 well microtiter plates, at 5×10^3 cells per well in aliquots of 195 μL medium, and they are allowed to attach to the plate surface by growing in drug free medium for 18 hours. Afterward, samples are added in aliquots of 5 μL in a ranging from 10 to 10^−8 μg/mL, dissolved in DMSO:EtOH:PBS (0.5:0.5:99). After 48 hours exposure, the antitumor effect are measured by the SRB methodology: cells are fixed by adding 50 μL of cold 50% (wt/vol) trichloroacetic acid (TCA) and incubating for 60 minutes at 4° C. Plates are washed with deionized water and dried. One hundred μL of SRB solution (0.4% wt/vol in 1% acetic acid) is added to each microtiter well and incubated for 10 minutes at room temperature. Unbound SRB is removed by washing with 1% acetic acid. Plates are air dried and bound stain is solubilized with Tris buffer. Optical densities are read on a automated spectrophotometric plate reader at a single wavelength of 490 nm.
The values for mean+/− SD of data from triplicate wells are calculated. Some parameters for cellular responses can be calculated: GI=growth inhibition, TGI=total growth inhibition (cytostatic effect) and LC=cell killing (cytotoxic effect).

As a reminder, the GI50 is the concentration at which growth is held to half of that of the control. In the case of `C/C=C1\NC(=O)[C@H](Cc2ccccc2)NC(=O)[C@@H](C(C)C)NC(=O)[C@@H]([C@@H](C)CC)NC(=O)[C@H](NC(=O)[C@@H](CS)NC(=O)[C@H](CCCN)NC(=O)[C@H]2CCCN2C(=O)[C@H](NC(=O)[C@H](CS)NC(=O)[C@@H](NC(=O)[C@H](NC(=O)CCCC(C)C)C(C)C)[C@@H](C)O)C(C)C)[C@@H](C)OC(=O)[C@H](C(C)C)NC1=O` [Compound 107, [D-Cys^7, L-Cys^11]-KF] ({Hexanoyl(5-Me)}-[dV]TC[dV][dP][Orn][dC][d(aThr)][d(aIle)][dV]F[Dhb]V; ester 8-C), in data set [1], the “TGI (total growth inhibition)” value was found to be 6.80E−06 Molar, the 50% growth inhibitory concentration (GI50) is 6.8 µM and the CC50 was determined as 6.8 µM. Also, in data set [2], the “TGI (total growth inhibition)” value is 6.80E−06 Molar, the concentration for 50% growth inhibition (GI50) was found to be 6.8 µM and the CC50 worked out at 6.8 µM. Moreover, the “TGI (total growth inhibition)” value in data set [3] amounted to 6.80E−06 Molar.
In the case of `C/C=C1\NC(=O)[C@H](Cc2ccccc2)NC(=O)[C@@H](C(C)C)NC(=O)[C@@H]([C@@H](C)CC)NC(=O)[C@H](NC(=O)[C@H](NC(=O)[C@H](CCCN)NC(=O)[C@H]2CCCN2C(=O)[C@H](NC(=O)[C@@H](NC(=O)[C@@H](NC(=O)[C@H](NC(=O)[C@]23CCC(C)(C)C[C@H]2C2=CC[C@@H]4[C@@]5(C)CC[C@H](O)C(C)(C)[C@@H]5CC[C@@]4(C)[C@]2(C)CC3)C(C)C)[C@@H](C)O)C(C)C)C(C)C)[C@@H](C)CC)[C@@H](C)OC(=O)[C@H](C(C)C)NC1=O` [Compound 102, [AO^14]-KF], in data set [1], the “TGI (total growth inhibition)” value stood at 5.54E−06 Molar, the 50% growth inhibitory concentration (GI50) came out at 4.53 µM and the CC50 was found to be 5.54 µM. Also, in data set [2], the “TGI (total growth inhibition)” value amounted to 5.54E−06 Molar, the GI50 was found to be 5.54 µM and the CC50 worked out at 5.54 µM. Besides, in data set [3], the “TGI (total growth inhibition)” value is 5.54E−06 Molar.
As to `C/C=C1\NC(=O)[C@H](Cc2ccccc2)NC(=O)[C@@H](C(C)C)NC(=O)[C@@H]([C@@H](C)CC)NC(=O)[C@H](NC(=O)[C@H](NC(=O)[C@@H](CCCN)NC(=O)[C@@H]2CCCN2C(=O)[C@H](NC(=O)[C@@H](NC(=O)[C@@H](NC(=O)[C@H](NC(=O)CCCC(C)C)C(C)C)[C@@H](C)O)C(C)C)C(C)C)[C@@H](C)CC)[C@@H](C)OC(=O)[C@H](C(C)C)NC1=O` [Compound 106, [D-Orn^8, L-Pro^9]-KF], in data set [1], the “TGI (total growth inhibition)” value is recorded as 6.77E−06 Molar, the GI50 is 6.77 µM and the CC50 was 6.77 µM. Also, in data set [2], the “TGI (total growth inhibition)” value amounted to 6.77E−06 Molar, the GI50 came out at 6.77 µM and the CC50 amounted to 6.77 µM. Further, in data set [3], the “TGI (total growth inhibition)” value worked out at 6.77E−06 Molar, the GI50 is no less than 6.77 µM and the CC50 was no less than 6.77 µM.
As for `C/C=C1\NC(=O)[C@H](Cc2ccccc2)NC(=O)[C@@H](C(C)C)NC(=O)[C@@H]([C@@H](C)CC)NC(=O)[C@H](NC(=O)[C@H](NC(=O)[C@H](CCCN)NC(=O)[C@H]2CCCN2C(=O)[C@H](NC(=O)[C@@H](NC(=O)[C@@H](NC(=O)[C@H](N=C(N(C)C)N(C)C)C(C)C)[C@@H](C)O)C(C)C)C(C)C)[C@@H](C)CC)[C@@H](C)OC(=O)[C@H](C(C)C)NC1=O` [Compound 103, [[C(═N(CH3)2)^14]-KF], the “TGI (total growth inhibition)” value in data set [1], in data set [2] and in data set [3] was 6.83E−06 Molar throughout.
`C/C=C1\NC(=O)[C@H](Cc2ccccc2)NC(=O)[C@@H](C(C)C)NC(=O)[C@@H]([C@@H](C)CC)NC(=O)[C@H](NC(=O)[C@H](NC(=O)[C@H](CCCN)NC(=O)[C@H]2CCCN2C(=O)[C@H](NC(=O)[C@@H](NC(=O)[C@@H](NC(=O)[C@H](NC(=O)CCCC(C)C)C(C)C)[C@@H](C)O)C(C)C)C(C)C)[C@H](C)CC)[C@@H](C)OC(=O)[C@H](C(C)C)NC1=O` [Compound 104, [D-Ile^7]-KF]: in data set [1], the “TGI (total growth inhibition)” value worked out at 1.13E−06 Molar, the GI50 worked out at 0.942 µM and the CC50 worked out at 1.51 µM. In addition, in data set [2], the “TGI (total growth inhibition)” value turned out to be 3.39E−07 Molar, the GI50 amounted to 0.314 µM and the CC50 turned out to be 0.371 µM. Further, in data set [3], the “TGI (total growth inhibition)” value was 5.34E−06 Molar, the GI50 came out at 5.09 µM and the CC50 amounted to 5.59 µM.
Turning to `C/C=C1\NC(=O)[C@H](Cc2ccccc2)NC(=O)[C@@H](C(C)C)NC(=O)[C@@H]([C@@H](C)CC)NC(=O)[C@H](NC(=O)[C@@H](CS)NC(=O)[C@H](CCCN)NC(=O)[C@H]2CCCN2C(=O)[C@@H](CS)NC(=O)[C@@H](NC(=O)[C@@H](NC(=O)[C@H](NC(=O)CCCC(C)C)C(C)C)[C@@H](C)O)C(C)C)[C@@H](C)OC(=O)[C@H](C(C)C)NC1=O` [Compound 108, [D-Cys^7, D-Cys^10]-KF] ({Hexanoyl(5-Me)}-[dV]TV[dC][dP][Orn][dC][d(aThr)][d(aIle)][dV]F[Dhb]V; ester 8-C), the “TGI (total growth inhibition)” value in data set [1], in data set [2] and in data set [3] was 6.53E−06. Molar in each case. Further, the GI50 in data set [1] and in data set [2] was 6.53 µM each time. The CC50 in data set [1] and in data set [2] was 6.53 µM throughout.
Consider `C/C=C1\NC(=O)[C@H](Cc2ccccc2)NC(=O)[C@@H](C(C)C)NC(=O)[C@@H]([C@@H](C)CC)NC(=O)[C@H](NC(=O)[C@H](NC(=O)[C@H](CCCN)NC(=O)[C@H]2CCCN2C(=O)[C@H](NC(=O)[C@@H](NC(=O)[C@@H](NC(=O)[C@H](NC(=O)CCCC(C)C)C(C)C)[C@@H](C)O)C(C)C)C(C)C)C(C)C)[C@@H](C)OC(=O)[C@H](C(C)C)NC1=O` [Compound 105, [D-Val^7]-KF] ({Hexanoyl(5-Me)}-[dV]TV[dV][dP][Orn][dV][d(aThr)][d(aIle)][dV]F[Dhb]V; ester 8-C), for which, in data set [1], the “TGI (total growth inhibition)” value came out at 2.60E−06 Molar, the GI50 turned out to be 2.28 µM and the CC50 was determined as 3.04 µM. Also, in data set [2], the “TGI (total growth inhibition)” value was 8.87E−07 Molar, the GI50 was found to be 0.824 µM and the CC50 amounted to 0.887 µM. For the same molecule, the “TGI (total growth inhibition)” value in data set [3] came out at 6.33E−06 Molar.
Regarding `C/C=C1\NC(=O)[C@H](Cc2ccccc2)NC(=O)[C@@H](C(C)C)NC(=O)[C@@H]([C@@H](C)CC)NC(=O)[C@H](NC(=O)[C@H](NC(=O)[C@H](CCCN)NC(=O)[C@H]2CCCN2C(=O)[C@H](NC(=O)[C@@H](NC(=O)[C@@H](NC(=O)[C@H](NC(=O)CCCC(C)C)C(C)C)[C@@H](C)O)C(C)C)C(C)C)[C@@H](C)CC)[C@@H](C)OC(=O)[C@@H](C(C)C)NC1=O` [Compound 110, [D-Val^1]-KF], in data set [1], the “TGI (total growth inhibition)” value is on record as 1.13E−06 Molar, the GI50 was 0.879 µM and the CC50 was 1.63 µM. Further, in data set [2], the “TGI (total growth inhibition)” value is on record as 5.15E−07 Molar, the GI50 came out at 0.408 µM and the CC50 was 0.691 µM. For the same molecule, in data set [3], the “TGI (total growth inhibition)” value is given as 3.71E−06 Molar, the GI50 is 3.2 µM and the CC50 amounted to 6.28 µM.
As for `C/C=C1\NC(=O)[C@H](Cc2ccccc2)NC(=O)[C@@H](C(C)C)NC(=O)[C@@H]([C@@H](C)CC)NC(=O)[C@H](NC(=O)[C@@H](CCS)NC(=O)[C@H](CCCN)NC(=O)[C@H]2CCCN2C(=O)[C@@H](CCS)NC(=O)[C@@H](NC(=O)[C@@H](NC(=O)[C@H](NC(=O)CCCC(C)C)C(C)C)[C@@H](C)O)C(C)C)[C@@H](C)OC(=O)[C@H](C(C)C)NC1=O` [Compound 109, [D-homoCys^7, D-homoCys^10]-KF] ({Hexanoyl(5-Me)}-[dV]TV[d(hCys)][dP][Orn][d(hCys)][d(aThr)][d(aIle)][dV]F[Dhb]V; ester 8-C), in data set [1], the “TGI (total growth inhibition)” value was 6.26E−06 Molar, the GI50 is 6.26 µM and the CC50 turned out to be 6.26 µM. In addition, in data set [2], the “TGI (total growth inhibition)” value was 6.26E−06 Molar, the GI50 came to 6.26 µM and the CC50 turned out to be 6.26 µM. The “TGI (total growth inhibition)” value in data set [3] is 6.26E−06 Molar.
